The values below come from US20210388028A1, “GLYCOPEPTIDE DERIVATIVE COMPOUNDS AND USES THEREOF” (INSMED INCORPORATED, priority 2018, published 2021).

Details of data set [1]: species or system Sprague Dawley rats. Particulars: rat, in vivo, inhaled or intranasal, 10 mg/kg. Here is the method:
120 h single dose in vivo PK experiments of nebulized inhaled compounds were performed in healthy male Sprague Dawley rats at target body-weight doses of 10 mg/kg (RV40) or 1.5 mg/kg (TLV, RV104, RV106), using a 12-port nose-only chamber (CH Technologies, Westwood, N.J., USA) equipped with an Aerogen Aeroneb Pro mesh nebulizer. The aerosol was provided to chamber at a flow rate of 6 L/min. Lungs were collected, and drug concentrations measured by HPLC-MS/MS.
Chemical modification of the compound to include an additional moiety at R=x was accomplished to improve reduce the compound's predictive hydrophobicity.

Data set [2] deals with gram positive pathogens including S. Aureus methicillin-susceptible and resistant isolates. In words: antibacterial activity against gram positive pathogens. The format is cell-based.

As to `CCCCCCCCCCNCCN[C@@]1(C)C[C@H](O[C@H]2[C@H](Oc3c4cc5cc3Oc3ccc(cc3Cl)[C@@H](O)[C@@H](NC(=O)[C@@H](CC(C)C)NC)C(=O)N[C@@H](CC(N)=O)C(=O)N[C@H]5C(=O)N[C@H]3C(=O)N[C@H](C(=O)N[C@H](C(=O)O)c5cc(O)cc(O)c5-c5cc3ccc5O)[C@H](O)c3ccc(c(Cl)c3)O4)O[C@H](CO)[C@@H](O)[C@@H]2O)O[C@@H](C)[C@H]1O` [RV40], in data set [1], the “half-life in lung tissue (t1/2)” value turned out to be 12.5 days. Moreover, the antibacterial activity entry in data set [2] is “potent antibacterial activity”.
